No end group written: not given here.
How the values were obtained:
FPRL1 [1] = target: T1, FPRL1 (Homo sapiens, UniProt P25090); experiment: Calcium flux in CHO-K1 cells co-transfected with FPRL1 and Gα16; type: cell-based; set-up: expressed in transfected cells; host or cells: CHO-K1 (ATCC-CCL-61), transient co-transfection
T1 sequence (P25090 1-351): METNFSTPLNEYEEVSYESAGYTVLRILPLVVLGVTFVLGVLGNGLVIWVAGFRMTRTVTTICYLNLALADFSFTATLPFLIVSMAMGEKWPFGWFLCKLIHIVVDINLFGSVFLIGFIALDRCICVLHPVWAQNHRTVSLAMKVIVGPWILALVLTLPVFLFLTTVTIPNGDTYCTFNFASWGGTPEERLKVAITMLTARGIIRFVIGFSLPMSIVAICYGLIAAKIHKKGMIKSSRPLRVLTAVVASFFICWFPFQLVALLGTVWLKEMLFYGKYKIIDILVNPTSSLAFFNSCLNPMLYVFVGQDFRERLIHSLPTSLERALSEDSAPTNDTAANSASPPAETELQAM
Procedure: The assay was carried out in CHO cells were transiently transfected with the GPCR of choice, by utilizing the promiscuous Gα16 to divert signaling to the Gq pathway, thus enabling readout of GPCR activation by testing for Calcium flux as described by Liu et al 2003 (Biomol Screen 8, 39-49).
All the peptides thus obtained were tested for their ability to change calcium flux in CHO—K1 cells (ATCC-CCL-61) transiently co-transfected with an expression vector containing the GPCR of choice and expression vector containing the Gα16 encoding cDNA. Expression constructs containing cDNA clones for MrgX1, MrgX2, Mas or FPRL1 were commercially obtained in one of the following expression vectors: pcDNA3.1, pCMV6, or MO2.
Transient transfections were performed using CHO—K1 cells as host cells. Cells (12 million) were plated into T75 flasks on the day preceding transfection. Cells were transfected with the appropriate GPCR expression vector and with a vector expressing Gα16 using a lipid-based reagent, MTI, according to the manufacturer's recommendation. Cells were transfected for 5 hours, then re-plated into 96-well dishes (60,000 cells per well) and grown overnight.
On the day of the experiment, cells were loaded with Fluo4-NW (Invitrogen) according to the manufacturer's recommendation. Plates were loaded into a FlexStation™ (Molecular Devices) plate reader and fluorescence was monitored. Seventeen seconds following initiation of reading, cells were stimulated with the indicated agonist/compound at final concentration of 1 μM. Each 96 well plate contained cells transfected with one GPCR expression vector and each of the examined peptides was tested in triplicate.
We defined a hit as a peptide which elicited a clear and distinct increase in intracellular calcium that is clearly visible and statistically significant upon examination of the calcium trace for at least two repeats. The criterion for statistical significance was a p-value lower than 0.001 in a t-test comparing the levels of calcium before and after peptide addition.
Based on dose response experiments, EC50 best fit values were calculated by non-linear regression of sigmoidal dose-response curves, using Prism version 4 (GraphPad Software Inc., San Diego, Calif.). The formulae for the sigmoidal dose-response curves was defined as Y=Bottom+(Top−Bottom)/(1+10^ (LogEC50−X)*HillSlope))
The ability of Peptides to change calcium flux was examined in CHO—K1 cells co-transfected with FPRL1 and Gal 6.

FPRL1 [2] = target: T1, FPRL1; experiment: Competitive radioligand binding assay ([125I] WKYMVm) to FPRL1 in CHO transfected cells; set-up: expressed in transfected cells; host or cells: CHO transfected cells; details: 0.025 nM [125I] WKYMVm, 90 minutes at 25° C.; read-out: IC50, inhibition of W peptide binding
Procedure: The specific binding of Peptide 58 (SEQ ID NO:1) to FPRL1 was analyzed by testing its ability to compete with 0.025 nM [^125I] WKYMVm (W peptide), a known agonist of FPRL1, for binding to FPRL1 in CHO transfected cells. CKβ8-1 (aa 46-137), another known ligand of FPRL1 was used as a positive control in this assay (Chiang et al 2006, Pharmacological Reviews 58, 463-487). Peptides were incubated with cells for 90 minutes at 25° C., in the presence of Incubation Buffer (50 mM HEPES, pH 7.4, 100 mM NaCl, 5 mM KCl, 5 mM MgCl2, 2 mM Ca Cl2, 0.5% BSA) and the amount of radioactive W peptide was measured.

[3] = system: Zymosan-induced murine dorsal air pouch model; type: in vivo, mice; details: 200 μg/mouse i.v., 4 h
Procedure: In order to analyze the ability of P58 to exert in vivo effects via the FPRL1 receptor, an acute experimental model of inflammation, the Zymosan-induced murine dorsal air pouch model, was used.
Male out-bred Swiss albino mice were purchased from Harlan, UK (T.O. strain) and maintained on a standard chow pellet diet with tap water ad libitum and a 12:00 h light/dark cycle. All animals were housed for 7 days prior to experimentation to allow body weight to reach ˜30 g on the day of the experiment.
Drugs were stored at −20° C. and defrosted on the day of the experiment. Peptide P58 was provided lyophilized; it was taken back to room temperature and dissolved with sterile PBS before use to make an initial 1 mg/ml solution. […]
Flow cytometry was performed using FACScan analyser (Becton Dickinson, Cowley, UK) with air-cooled 100 mW argon laser tuned to 488 nm connected to an Apple Macintosh G3 computer running Cell Quest II software. […] Cells positive for GR-1 were detected in the FL2 channel (wavelength of 548 nm). Data are expressed as percentage of positive cells (in relation to the specific mAb). […] Once determined, quadrants were rigorously maintained for all analyses.
Data are shown for single mice, and also shown as mean±S.E. of (n) mice per group. Statistical differences were determined by ANOVA, plus Student Newman Keuls test. […]

calcium flux relative to the negative control (FPRL1 [1]; 1 μM, three wells, about 20 to 90 seconds) | calcium flux, P58 and derivatives (FPRL1 [1]; dose response) | IC50 (FPRL1 [2]) [nM] | Substance | inhibition of leukocyte accumulation triggered by zymosan A [3] | inhibition of neutrophil (GR-1+) accumulation triggered by zymosan A ([3]; FACS) [%]
increased calcium flux | elicited calcium flux | 189 | TIPMFVPESTSKLQKFTSWFM-NH2 [Peptide P58] | – | –
– | – | – | Ac2-26: a peptide derived from the N-terminus of AnnexinI; known FPRL1 agonist possessing anti-inflammatory activity; positive control (AMVSEFLKQAWFIENEEQEYVQTVK) | inhibited significantly | 52

From US8349801B2, “Peptide ligands for G-protein coupled receptors” (priority 2006, dated 2013)
